{"source": "patent US7049293B2", "about": "“Peptide and osteogenetic accelerator” (Kyocera Corporation, priority 1998, dated 2006)", "key": {"[1]": {"system": "rat bone marrow cells", "assay": "Cytotoxicity test in vitro, rat bone marrow cells (colony count, Giemsa staining)", "format": "cell-based, rats (Lewis)", "details": "30 μg/ml, seven days", "description": "Femurs were aseptically taken out of six-week-old female rats (Lewis, purchased from Nippon SLC). Both ends of the femurs were cut off. Then bone marrow was extruded into centrifugal tubes by means of Eagle's MEM containing 10% of fetal bovine serum using an injection syringe with a 21 G injection needle. The bone marrow cells were sufficiently dispersed with a pipette and filtered through a 40 μm filter to remove agglutinations. The resulting bone marrow cells were centrifuged with Eagle's MEM containing 10% of fetal bovine serum three times (1200 rpm, 5 min.×3), and then the number of cells was counted. The bone marrow cells were diluted with Alpha MEM containing 10% of fetal bovine serum so that relatively large bone marrow cells were present in a concentration of 10^6/ml. The dilution was pipetted 10 ml in each culture flask having a culture area of 25 cm^2 and incubated at 37° C. in the presence of 5% CO2. […]\nTwenty-four hours after the incubation was started, culture medium was removed and Alpha MEM containing 10% of fetal bovine serum and 30 μg/ml of the peptide described in Example 1 was added to the cells under culture. […] After seven days, the number of formed colonies of bone marrow cells was counted using Giemsa staining. […]"}, "[2]": {"system": "C3H10T1/2 cells", "assay": "Cytotoxicity test in vitro, C3H10T1/2 cells (protein concentration, BCA)", "format": "cell-based", "details": "100 μg/ml, six days", "procedure": "C3H10T1/2 cells were dispersed in Eagle's MEM containing 10% fetal bovine serum, pipetted on a 96-well culture plate, 3750 cells per well, and incubated at 37° C. in the presence of 5% CO2. Into the wells, a PBS solution of the peptide described in Example 1 was added so that the resulting concentration became 100 μg/ml, followed by incubation under the same conditions for six days. Then the culture medium was removed and a cytolytic solution (0.1M Tris-HCl buffer containing 1% Triton X-100, pH 9) was added to dissolve cells. Then the concentration of protein was determined using BCA reagent (produced by Funakoshi Kabushiki Kaisha)."}, "[3]": {"system": "rats", "assay": "Acute toxicity test on rats", "format": "in vivo, rats (Lewis)", "details": "500 μg intraperitoneally three times in a week", "procedure": "A PBS solution of 500 μg of the peptide described in Example 1 was intraperitoneally administered to six-week-old female rats (Lewis, purchased from Nippon SLC) three times in a week. […] Neither were the rats observed to have a poor coat of fur or any abnormal behavior during the test."}}, "note": "Residues, ends and D or L forms follow the SMILES beside them.", "data": [{"smiles": "CC[C@H](C)[C@H](NC(=O)[C@H](C)NC(=O)[C@H](CO)NC(=O)[C@H](CC(C)C)NC(=O)[C@H](CCC(=O)O)NC(=O)[C@@H](NC(=O)[C@@H]1CCCN1C(=O)[C@@H](NC(=O)[C@H](CS)NC(=O)[C@H](CS)NC(=O)[C@H](C)NC(=O)[C@H](CCCCN)NC(=O)[C@@H]1CCCN1C(=O)[C@@H](NC(=O)[C@H](CCCCN)NC(=O)[C@H](CO)NC(=O)[C@H](CC(N)=O)NC(=O)[C@@H](NC(=O)[C@H](CO)NC(=O)[C@@H](N)CC(N)=O)C(C)C)[C@@H](C)CC)C(C)C)[C@@H](C)O)C(=O)O", "note": "[Example 1] (H-NSVNSKIPKACCVPTELSAI-OH)", "values": [{"measurement": "number of formed colonies of bone marrow cells", "setting": "[1]; average per flask, PBS control 89", "result": 101}, {"measurement": "cytotoxicity (conclusion)", "setting": "[1]; rat bone marrow cells", "result": "did not have cytotoxicity"}, {"measurement": "cytotoxicity (conclusion)", "setting": "[2]; C3H10T1/2 cells", "result": "did not have cytotoxicity"}, {"measurement": "concentration of protein", "setting": "[2]; n=12, PBS control 0.07±0.03", "result": "120 ± 20", "unit": "µg/mL"}, {"measurement": "increase in weight", "setting": "[3]; after a week, n=6, PBS control 23±5", "result": "25 ± 6", "unit": "g"}, {"measurement": "acute toxicity (conclusion)", "setting": "[3]; no poor coat of fur or abnormal behavior", "result": "no significant acute toxicity"}]}]}
